Row | SMILES | melting point
1 | O=C1CCc2c(OCC3(O)CCN(c4ncc(C(F)(F)F)cc4Cl)CC3)ccc(F)c2N1 | 172.5 to 172.7 °C
2 | O=C1CCc2c(OCC3(O)CCN(c4cc(OCC(F)(F)F)c(Cl)cc4F)CC3)ccc(F)c2N1 | 200.6 to 201 °C
3 | CCOc1cc(N2CCC(O)(COc3ccc(Cl)c4c3CCC(=O)N4)CC2)c(F)cc1F | 182.1 to 182.4 °C
4 | CCCc1cc(N2CCC(O)(COc3ccc(F)c4c3CCC(=O)N4)CC2)c(F)cc1F | 184.7 to 184.8 °C
5 | O=C1CCc2c(OCC3(O)CCN(c4cc5c(cc4F)OC(F)(F)O5)CC3)cc(F)c(F)c2N1 | 258.9 to 259 °C (dec.)
6 | O=C1CCc2c(OCC3(O)CCN(c4c(F)cc(Br)cc4F)CC3)cc(F)c(F)c2N1 | 233.1 to 233.2 °C
7 | O=C1CCc2c(OC[C@]3(O)CCN(c4ccc(F)cc4Cl)C[C@H]3O)cc(F)c(F)c2N1 | 192.2 to 193.2 °C
8 | O=C1CCc2c(OC[C@]3(O)CCN(c4cc(F)c(Cl)cc4Cl)C[C@H]3O)ccc(Cl)c2N1 | 180.2 to 180.6 °C
9 | O=C1CCc2c(OC[C@]3(O)CCN(c4nc5ccc(Cl)cc5o4)C[C@H]3O)ccc(F)c2N1 | 219 to 220 °C
10 | O=C1CCc2c(OC[C@@]3(O)CCN(c4ccc(Br)cc4F)C[C@H]3O)ccc(F)c2N1 | 194.7 to 194.8 °C
11 | O=C1CCc2c(NCC3(O)CCN(c4ccc(F)cc4Cl)CC3)ccc(F)c2N1 | 214 to 215 °C
12 | CN(CC1(O)CCN(c2ccc(Cl)cc2Cl)CC1)c1ccc(F)c2c1CCC(=O)N2 | 156 to 157 °C
13 | CC(=O)NC1(COc2ccc(F)c3c2CCC(=O)N3)CCN(c2ncc(F)cc2C#N)CC1 | 237.8 to 238.2 °C
14 | O=C1CCc2c(OCC3(O)CCN(c4ccc(OC(F)(F)F)cc4)CC3)ccc(F)c2N1 | 200.7 °C
15 | O=C1CCc2c(OCC3(O)CCN(c4c(F)cc(Cl)cc4F)CC3)ccc(F)c2N1 | 225.5 to 225.6 °C
16 | O=C1CCc2c(OCC3(O)CCN(c4ccc(Cl)cc4C(F)(F)F)CC3)ccc(F)c2N1 | 211.3 to 211.5 °C

Further lines, results first:

Row | melting point | SMILES
17 | 193 °C | O=C1CCc2c(OCC3(O)CCN(c4ccc(OCc5ccccc5)cc4F)CC3)ccc(F)c2N1
18 | 219.1 to 220 °C | O=C1CCc2cc(OCC3(O)CCN(c4ccc(Cl)cc4F)CC3)ccc2N1
19 | 255 to 256 °C | O=c1ccc2c(OCC3(O)CCN(c4ccc(Cl)cc4F)CC3)ccc(F)c2[nH]1
20 | 223 to 223.3 °C | O=C1CCc2c(OCC3(O)CCN(c4cc(OCCF)c(Cl)cc4F)CC3)ccc(Cl)c2N1
21 | 172.6 to 172.7 °C | O=C1CCc2c(OCC3(O)CCN(c4c(F)cc(OC(F)F)cc4F)CC3)ccc(F)c2N1
22 | 197.4 to 203.9 °C | O=C1CCc2c(OCC3(O)CCN(c4ncc(Br)cc4F)CC3)ccc(F)c2N1
23 | 191.4 to 191.7 °C | COc1cc(N2CCC(O)(COc3ccc(Cl)c4c3CCC(=O)N4)CC2)c(F)cc1F
24 | 175.7 to 177 °C | O=C1CCc2c(OC[C@]3(O)CCN(c4ccc(F)cc4Cl)C[C@H]3O)cc(F)c(Cl)c2N1
25 | 199 to 199.7 °C | O=C1CCc2c(OC[C@]3(O)CCN(c4cc(F)c(Cl)cc4F)C[C@H]3O)ccc(F)c2N1
26 | 185.8 to 186.2 °C | CCCCOc1cc(F)c(N2CC[C@@](O)(COc3ccc(F)c4c3CCC(=O)N4)[C@H](O)C2)c(F)c1
27 | 225 to 226 °C | O=C1CCc2c(NCC3(O)CCN(c4ccc(Cl)cc4F)CC3)ccc(F)c2N1
28 | 169 to 170 °C | O=C1CCc2c(OCC3(O)CCN(c4cccc(Cl)c4)CC3)ccc(F)c2N1
29 | 228.7 °C | O=C1CCc2c(OCC3(O)CCN(c4cccc(Cl)c4Cl)CC3)ccc(F)c2N1
30 | 168 °C | O=C1CCc2c(OCC3(O)CCN(c4ccccc4OC(F)(F)F)CC3)ccc(F)c2N1
31 | 131.1 to 131.3 °C | CC(C)c1cccc(N2CCC(O)(COc3ccc(F)c4c3CCC(=O)N4)CC2)c1
32 | 159.4 to 159.5 °C | O=C1CCc2c(OCC3(O)CCN(c4cccc(C(F)(F)F)c4)CC3)ccc(F)c2N1
33 | 239.3 to 239.6 °C | O=C1CCc2c(OCC3(O)CCN(c4c(F)cc(F)cc4Cl)CC3)ccc(F)c2N1

— patent publication US10464926B2, “Heterobicyclic compounds and their use for the treatment of tuberculosis” (OTSUKA PHARMACEUTICAL CO., LTD., priority 2014, dated 2019)
